# According to US20240101576A1, “HETEROCYCLIC INHIBITORS OF EGFR AND/OR HER2, FOR USE IN THE TREATMENT OF CANCER” (Scorpion Therapeutics, Inc., priority 2020, published 2024):
# pIC50: −log10 of the molar value.
# How the values were obtained:
# Format in all cases: cell-based
# [1] = biological target: T1, EGFR L858R (Ba/F3 cells) (Homo sapiens, UniProt P00533, L858R); test: Inhibitor activity on EGFR-dependent cell growth (CellTiter-Glo, 72 h), Ba/F3 EGFR L858R; settings: read-out: BaF3 L858R IC50
# T1 construct: expressed in transfected cells; host or cells: Ba/F3 (murine pro-B cells), retroviral transduction, puromycin selection, IL3-independent pool
# Method in brief: (§1)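 IC50s derive from a sigmoidal dose–response fit of CellTiter-Glo signal. The signal was normalised between […]-treated cells and cell-free medium. Ba/F3 mutant-EGFR cells, seeded at 400–800/well depending on the line, had 72 h of exposure to a 10-point, 3-fold compound series.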
# [2] = biological target: T2, EGFR exon 19del (Ba/F3 cells) (Homo sapiens, UniProt P00533); test: Inhibitor activity on EGFR-dependent cell growth (CellTiter-Glo, 72 h), Ba/F3 EGFR exon 19del; settings: Ba/F3 EGFR exon 19del cell growth, read-out: BaF3 Del19 IC50
# Method in brief: as §1
# [3] = biological target: T3, EGFR L858R/C797S (Ba/F3 cells) (Homo sapiens, UniProt P00533, C797S/L858R); test: Inhibitor activity on EGFR-dependent cell growth (CellTiter-Glo, 72 h), Ba/F3 EGFR L858R/C797S; settings: read-out: BaF3 L858R/C797S IC50
# T3 construct: expressed in transfected cells; host or cells: Ba/F3 (murine pro-B cells), retroviral transduction, puromycin selection, IL3-independent pool
# Method in brief: as §1
# [4] = biological target: T1, EGFR L858R (Ba/F3 cells); test: Inhibitor activity on EGFR phosphorylation (pEGFR AlphaLISA, 2 h), Ba/F3 EGFR L858R
# Method in brief: (§2)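 Cellular EGFR autophosphorylation assay. IL3-independent Ba/F3 transductants or CUTO14 cells are incubated with serially diluted compound (3-fold, 10 points) for 2 h, then lysed and pEGFR quantified by AlphaLISA.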
# [5] = biological target: T2, EGFR exon 19del (Ba/F3 cells); test: Inhibitor activity on EGFR phosphorylation (pEGFR AlphaLISA, 2 h), Ba/F3 EGFR exon 19del; settings: read-out: Del19 IC50 (pEGFR)
# Method in brief: as §2
# [6] = biological target: T3, EGFR L858R/C797S (Ba/F3 cells); test: Inhibitor activity on EGFR phosphorylation (pEGFR AlphaLISA, 2 h), Ba/F3 EGFR L858R/C797S
# Method in brief: as §2
# [7] = biological target: T4, EGFR WT (Ba/F3 cells) (Homo sapiens, UniProt P00533); test: Inhibitor activity on EGFR-dependent cell growth (CellTiter-Glo, 72 h), Ba/F3 EGFR WT; settings: read-out: BaF3 WT IC50
# T4 construct: expressed in transfected cells; host or cells: Ba/F3 (murine pro-B cells), retroviral transduction, puromycin selection, maintained with EGF
# Method in brief: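 This growth assay used Ba/F3 cells that depend on wild-type EGFR and are kept in EGF without IL3. Compounds were made up as 10 mM DMSO stocks and diluted 3-fold over 10 points. 120 nL went onto 600 cells/well. After 72 hours, 40 μL CellTiter-Glo was added and luminescence read on EnVision after 30 min.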
# [8] = biological target: T5, EGFR exon 20 NPG Ins D770_N771 (Ba/F3 cells) (Homo sapiens, UniProt P00533, INS770NPG); test: Inhibitor activity on EGFR-dependent cell growth (CellTiter-Glo, 72 h), Ba/F3 EGFR exon 20 NPG Ins; settings: read-out: BaF3 NPG IC50
# T5 construct: expressed in transfected cells; host or cells: Ba/F3 (murine pro-B cells), retroviral transduction, puromycin selection, IL3-independent pool
# Method in brief: as §1
# [9] = biological target: T6, EGFR exon 20 ASV Ins V769_D770 (Ba/F3 cells) (Homo sapiens, UniProt P00533, INS769ASV); test: Inhibitor activity on EGFR-dependent cell growth (CellTiter-Glo, 72 h), Ba/F3 EGFR exon 20 ASV Ins; settings: read-out: BaF3 ASV IC50
# T6 construct: expressed in transfected cells; host or cells: Ba/F3 (murine pro-B cells), retroviral transduction, puromycin selection, IL3-independent pool
# Method in brief: as §1
# [10] = biological target: T7, EGFR exon 20 SVD Ins D770_N771 (Ba/F3 cells) (Homo sapiens, UniProt P00533, INS770SVD); test: Inhibitor activity on EGFR-dependent cell growth (CellTiter-Glo, 72 h), Ba/F3 EGFR exon 20 SVD Ins; settings: read-out: BaF3 SVD IC50
# T7 construct: expressed in transfected cells; host or cells: Ba/F3 (murine pro-B cells), retroviral transduction, puromycin selection, IL3-independent pool
# Method in brief: as §1
# [11] = biological target: T8, EGFR exon 20 FQEA Ins A763_V764 (Ba/F3 cells) (Homo sapiens, UniProt P00533, INS763FQEA); test: Inhibitor activity on EGFR-dependent cell growth (CellTiter-Glo, 72 h), Ba/F3 EGFR exon 20 FQEA Ins; settings: read-out: BaF3 FQEA IC50
# T8 construct: expressed in transfected cells; host or cells: Ba/F3 (murine pro-B cells), retroviral transduction, puromycin selection, IL3-independent pool
# Method in brief: as §1
# [12] = biological target: T5, EGFR exon 20 NPG Ins D770_N771 (Ba/F3 cells); test: Inhibitor activity on EGFR phosphorylation (pEGFR AlphaLISA, 2 h), Ba/F3 EGFR exon 20 NPG Ins
# Method in brief: as §2
# [13] = biological target: T6, EGFR exon 20 ASV Ins V769_D770 (Ba/F3 cells); test: Inhibitor activity on EGFR phosphorylation (pEGFR AlphaLISA, 2 h), Ba/F3 EGFR exon 20 ASV Ins; settings: EGFR phosphorylation, AlphaLISA, 2 hours; read-out: ASV IC50 (pEGFR)
# Method in brief: as §2
# [14] = biological target: T7, EGFR exon 20 SVD Ins D770_N771 (Ba/F3 cells); test: Inhibitor activity on EGFR phosphorylation (pEGFR AlphaLISA, 2 h), Ba/F3 EGFR exon 20 SVD Ins
# Description: Example B. Inhibitor Activity on EGFR phosphorylation (pEGFR)
# EGFR mutant Ba/F3 cells were generated by transduction with retrovirus containing vectors expressing EGFR L858R, EGFR exon 19del, EGFR L858R/C797S, EGFR exon 20 NPG Ins D770_N771, EGFR exon 20 ASV Ins V769_D770, or EGFR exon 20 SVD Ins D770_N771 genes along with a puromycin selection marker. Transduced cells are selected with puromycin for 7 days and are then be transferred into culture media without Interleukin 3 (IL3). Surviving cells are confirmed to express EGFR by Western blot and maintained as a pool. CUTO14 cells were obtained from Dr. Robert C. Doebele at the University of Colorado. The IC50 date are included in Table 6 and Table 7.
# 1.1 Cells are harvested from flask into cell culture medium and the cell number counted.
# 1.2 Cells are diluted with culture medium to the desired density and 40 μL of cell suspension is added into each well of 384-well cell culture plate and the seeding density is 50K cells/well (Ba/F3) or 12.5K cells/well (CUTO14).
# 2 Compound Preparation and Treatment
# 2.1 Test compounds are dissolved to 10 mM in a DMSO stock solution. 45 μL of stock solution is transferred to a 384 polypropylene plate (pp-plate). Perform 3-fold, 10-point dilution via transferring 15 μL compound into 30 μL DMSO using a TECAN (EVO200) liquid handler.
# 2.2 Spin plates at room temperature at 1,000 RPM for 1 minute.
# 2.3 Transfer 5 nL of diluted compound from compound source plate into the cell plate.
# 2.4 After compound treatment for 2 hours, perform pEGFR detection by AlphaLISA for compound treatment plates as described in “Detection” section.
# 3 Detection by pEGFR AlphaLISA (Perkin-Elmer)
# 3.1 Plates are removed from incubators and equilibrated at room temperature for 10 minutes, and media was removed
# 3.2 10 μL of lysis buffer is added and plates shaken at 600 rpm for 1 hr.
# 3.3 Prepare acceptor mix just before use and dispense 5 μL of acceptor mix to all the wells. Shake 350 rpm for Ihr in the dark
# 3.4 Prepare donor mix under low light conditions prior to use. Dispense 5 μL of donor mix to all the wells. Mix well on the shaker, seal and wrap in aluminum foil and incubate 1.5 hrs at room temperature in the dark
# 3.5 Transfer 18.5 μL mixture to OptiPlate 384, and read using an Envision. The IC50 date were included in Table 6 and Table 7.
# [15] = biological target: EGFR (CUTO14 cells) (Homo sapiens, UniProt P00533); test: Inhibitor activity on EGFR phosphorylation (pEGFR AlphaLISA, 2 h), CUTO14 cells
# Method in brief: as §2
# T5 sequence (P00533 with tags, fused parts or gaps INS770NPG): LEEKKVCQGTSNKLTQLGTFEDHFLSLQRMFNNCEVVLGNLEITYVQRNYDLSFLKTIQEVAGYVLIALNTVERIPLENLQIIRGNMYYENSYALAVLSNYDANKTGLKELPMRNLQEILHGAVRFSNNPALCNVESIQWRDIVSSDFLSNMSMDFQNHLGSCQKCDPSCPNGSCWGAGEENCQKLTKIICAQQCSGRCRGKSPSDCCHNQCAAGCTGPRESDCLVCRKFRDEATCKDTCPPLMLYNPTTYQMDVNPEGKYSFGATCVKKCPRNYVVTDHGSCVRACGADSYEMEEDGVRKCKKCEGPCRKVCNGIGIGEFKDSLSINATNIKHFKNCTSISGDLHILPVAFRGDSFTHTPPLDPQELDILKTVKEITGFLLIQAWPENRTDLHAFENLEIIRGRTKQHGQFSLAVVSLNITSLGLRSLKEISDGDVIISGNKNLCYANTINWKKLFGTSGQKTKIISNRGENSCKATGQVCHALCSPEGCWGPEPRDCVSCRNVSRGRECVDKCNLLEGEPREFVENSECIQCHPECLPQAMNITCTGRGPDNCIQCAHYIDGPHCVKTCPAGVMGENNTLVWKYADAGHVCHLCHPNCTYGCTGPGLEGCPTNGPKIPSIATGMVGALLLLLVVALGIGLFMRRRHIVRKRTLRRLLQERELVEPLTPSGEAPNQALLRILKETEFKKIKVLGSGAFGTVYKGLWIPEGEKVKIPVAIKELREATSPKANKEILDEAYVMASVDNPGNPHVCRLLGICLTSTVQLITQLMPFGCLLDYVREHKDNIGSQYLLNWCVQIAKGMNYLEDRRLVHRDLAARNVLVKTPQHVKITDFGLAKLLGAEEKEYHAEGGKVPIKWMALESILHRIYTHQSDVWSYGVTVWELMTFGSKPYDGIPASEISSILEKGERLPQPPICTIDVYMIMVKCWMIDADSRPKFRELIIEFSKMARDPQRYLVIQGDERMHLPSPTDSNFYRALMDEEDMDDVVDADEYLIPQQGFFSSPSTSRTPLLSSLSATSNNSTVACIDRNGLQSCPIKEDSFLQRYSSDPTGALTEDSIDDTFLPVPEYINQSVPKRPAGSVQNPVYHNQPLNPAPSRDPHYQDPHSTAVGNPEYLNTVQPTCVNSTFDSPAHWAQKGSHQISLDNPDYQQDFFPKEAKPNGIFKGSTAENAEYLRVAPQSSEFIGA
# T3 sequence (P00533 25-1210 C797S/L858R): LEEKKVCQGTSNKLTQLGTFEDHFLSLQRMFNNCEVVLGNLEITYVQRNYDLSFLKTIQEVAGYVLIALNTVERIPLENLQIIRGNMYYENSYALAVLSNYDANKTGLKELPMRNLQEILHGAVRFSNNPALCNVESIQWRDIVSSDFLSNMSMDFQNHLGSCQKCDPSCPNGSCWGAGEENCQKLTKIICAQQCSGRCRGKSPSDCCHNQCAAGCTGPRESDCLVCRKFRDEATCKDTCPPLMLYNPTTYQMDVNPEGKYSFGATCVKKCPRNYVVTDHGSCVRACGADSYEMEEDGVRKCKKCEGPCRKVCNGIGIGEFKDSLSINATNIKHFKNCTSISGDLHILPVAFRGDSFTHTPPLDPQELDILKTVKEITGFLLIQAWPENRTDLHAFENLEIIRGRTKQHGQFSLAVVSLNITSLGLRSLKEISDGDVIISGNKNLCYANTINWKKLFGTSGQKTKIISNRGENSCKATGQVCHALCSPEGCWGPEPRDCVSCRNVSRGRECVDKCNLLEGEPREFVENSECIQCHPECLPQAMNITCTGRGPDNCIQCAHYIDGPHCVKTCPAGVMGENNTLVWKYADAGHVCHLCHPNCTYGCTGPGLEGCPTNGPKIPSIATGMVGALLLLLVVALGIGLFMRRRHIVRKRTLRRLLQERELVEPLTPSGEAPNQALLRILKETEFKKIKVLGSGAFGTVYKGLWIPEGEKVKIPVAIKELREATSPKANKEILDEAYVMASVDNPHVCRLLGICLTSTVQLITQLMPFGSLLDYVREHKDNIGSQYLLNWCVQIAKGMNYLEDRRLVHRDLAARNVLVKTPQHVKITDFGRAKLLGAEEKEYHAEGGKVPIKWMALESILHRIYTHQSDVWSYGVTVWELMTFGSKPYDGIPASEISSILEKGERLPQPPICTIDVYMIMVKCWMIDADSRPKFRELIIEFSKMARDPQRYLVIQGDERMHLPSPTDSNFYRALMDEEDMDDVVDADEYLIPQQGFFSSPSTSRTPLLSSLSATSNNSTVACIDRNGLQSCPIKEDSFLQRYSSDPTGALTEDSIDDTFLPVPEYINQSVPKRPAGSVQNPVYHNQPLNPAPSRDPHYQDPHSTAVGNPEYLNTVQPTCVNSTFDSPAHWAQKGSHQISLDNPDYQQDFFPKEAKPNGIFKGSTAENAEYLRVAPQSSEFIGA
# T1 sequence (P00533 25-1210 L858R): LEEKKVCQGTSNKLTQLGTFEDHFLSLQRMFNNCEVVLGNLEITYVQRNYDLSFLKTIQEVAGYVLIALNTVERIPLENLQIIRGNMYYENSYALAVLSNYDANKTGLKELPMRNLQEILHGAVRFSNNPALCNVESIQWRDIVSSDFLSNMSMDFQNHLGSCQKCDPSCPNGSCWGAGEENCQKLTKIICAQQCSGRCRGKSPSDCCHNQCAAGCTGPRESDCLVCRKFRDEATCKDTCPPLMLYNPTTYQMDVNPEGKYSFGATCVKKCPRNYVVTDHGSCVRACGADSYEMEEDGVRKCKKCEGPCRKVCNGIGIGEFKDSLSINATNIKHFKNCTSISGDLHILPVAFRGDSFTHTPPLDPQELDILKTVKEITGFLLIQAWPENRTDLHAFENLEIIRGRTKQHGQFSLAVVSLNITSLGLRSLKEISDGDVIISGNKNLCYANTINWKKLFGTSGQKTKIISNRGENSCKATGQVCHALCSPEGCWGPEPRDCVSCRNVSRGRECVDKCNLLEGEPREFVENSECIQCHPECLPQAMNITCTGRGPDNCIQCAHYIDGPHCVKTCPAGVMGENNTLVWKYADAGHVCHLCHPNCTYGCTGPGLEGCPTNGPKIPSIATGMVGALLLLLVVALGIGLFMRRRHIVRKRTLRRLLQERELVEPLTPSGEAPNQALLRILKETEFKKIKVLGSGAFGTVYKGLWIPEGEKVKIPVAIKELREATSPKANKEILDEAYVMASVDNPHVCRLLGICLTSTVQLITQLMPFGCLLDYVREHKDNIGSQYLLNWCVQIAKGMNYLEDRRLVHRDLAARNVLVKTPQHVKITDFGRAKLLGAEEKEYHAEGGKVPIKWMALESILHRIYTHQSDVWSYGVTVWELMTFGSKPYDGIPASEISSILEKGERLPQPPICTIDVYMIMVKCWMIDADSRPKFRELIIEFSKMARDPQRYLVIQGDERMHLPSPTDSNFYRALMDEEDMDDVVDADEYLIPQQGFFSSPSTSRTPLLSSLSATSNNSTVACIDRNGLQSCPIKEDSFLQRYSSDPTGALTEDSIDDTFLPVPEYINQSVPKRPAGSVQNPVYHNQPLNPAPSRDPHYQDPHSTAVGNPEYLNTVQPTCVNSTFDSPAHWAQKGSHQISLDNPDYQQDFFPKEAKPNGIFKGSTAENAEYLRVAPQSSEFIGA
# T8 sequence (P00533 with tags, fused parts or gaps INS763FQEA): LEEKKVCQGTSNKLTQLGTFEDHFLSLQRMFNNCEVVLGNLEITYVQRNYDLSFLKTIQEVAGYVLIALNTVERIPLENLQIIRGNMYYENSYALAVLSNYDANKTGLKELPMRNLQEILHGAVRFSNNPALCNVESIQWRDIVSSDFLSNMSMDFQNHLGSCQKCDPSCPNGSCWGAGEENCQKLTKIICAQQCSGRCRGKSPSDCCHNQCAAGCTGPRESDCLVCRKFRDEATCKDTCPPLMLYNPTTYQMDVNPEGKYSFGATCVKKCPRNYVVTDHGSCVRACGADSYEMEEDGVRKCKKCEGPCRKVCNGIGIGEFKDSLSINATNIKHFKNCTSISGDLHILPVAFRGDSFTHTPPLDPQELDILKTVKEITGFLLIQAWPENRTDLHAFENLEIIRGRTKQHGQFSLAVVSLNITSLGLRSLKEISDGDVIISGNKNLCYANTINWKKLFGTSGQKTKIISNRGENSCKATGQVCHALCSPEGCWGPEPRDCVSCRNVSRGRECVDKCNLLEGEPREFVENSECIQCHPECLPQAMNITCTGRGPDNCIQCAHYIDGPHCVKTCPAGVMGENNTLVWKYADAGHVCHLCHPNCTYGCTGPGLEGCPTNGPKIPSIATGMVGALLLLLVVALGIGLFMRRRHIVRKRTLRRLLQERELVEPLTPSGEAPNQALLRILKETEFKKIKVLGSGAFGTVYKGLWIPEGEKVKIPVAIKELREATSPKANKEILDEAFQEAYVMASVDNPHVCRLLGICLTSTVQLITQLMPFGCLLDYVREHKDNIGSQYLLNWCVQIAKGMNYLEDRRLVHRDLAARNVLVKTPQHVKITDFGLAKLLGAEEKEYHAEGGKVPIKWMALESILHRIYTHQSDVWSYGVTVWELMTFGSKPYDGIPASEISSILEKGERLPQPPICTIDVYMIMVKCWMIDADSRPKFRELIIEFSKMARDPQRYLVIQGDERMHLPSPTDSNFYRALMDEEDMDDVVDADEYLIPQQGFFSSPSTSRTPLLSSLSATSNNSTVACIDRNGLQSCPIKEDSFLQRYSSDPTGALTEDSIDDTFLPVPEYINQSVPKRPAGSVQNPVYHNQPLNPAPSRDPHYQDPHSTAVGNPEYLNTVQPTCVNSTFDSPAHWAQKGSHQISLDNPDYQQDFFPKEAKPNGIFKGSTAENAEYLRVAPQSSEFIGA
SMILES,pIC50 [1],pIC50 [2],pIC50 [3],pIC50 [4],pIC50 [5],pIC50 [6],pIC50 [7],pIC50 [8],pIC50 [9],pIC50 [10],pIC50 [11],pIC50 [12],pIC50 [13],pIC50 [14],pIC50 [15]
"COc1c(F)cccc1Nc1c(-c2ccncc2F)[nH]c2c1C(=O)NCC2C[C@@H]1COCCO1 (single isomer, unassigned) [Compound 566]",> 7.00,> 7.00,> 7.00,> 7.00,> 7.00,> 7.00,> 7.00,> 7.00,> 7.00,> 7.00,> 7.00,> 7.00,> 7.00,> 7.00,> 7.00
"COc1c(Cl)cccc1Nc1c(-c2ccnc(C)n2)[nH]c2c1C(=O)NC[C@H]2C[C@@H]1COCCO1 (single isomer, unassigned) [Compound 570]",> 7.00,> 7.00,> 7.00,> 7.00,> 7.00,> 7.00,6.00 to 7.00,> 7.00,–,–,> 7.00,> 7.00,> 7.00,> 7.00,> 7.00
"COc1c(Cl)cccc1Nc1c(-c2ccnc(C)n2)[nH]c2c1C(=O)NC[C@@H]2CC1COCCO1 (stereo in doubt) [Compound 551, (7S)-3-[(3-chloro-2-methoxyphenyl)amino]-7-[(2R)-1,4-dioxan-2-ylmethyl]-2-(2-methylpyrimidin-4-yl)-1H,5H,6H,7H-pyrrolo[3,2-c]pyridin-4-one]",> 7.00,> 7.00,> 7.00,> 7.00,> 7.00,> 7.00,6.00 to 7.00,> 7.00,–,–,6.00 to 7.00,> 7.00,> 7.00,> 7.00,> 7.00
"COc1c(Cl)cccc1Nc1c(-c2ccncc2F)[nH]c2c1C(=O)NC[C@@H]2C[C@H]1COCCO1 [Compound 481, (7S)-3-[(3-chloro-2-methoxyphenyl)amino]-7-[(2S)-1,4-dioxan-2-ylmethyl]-2-(3-fluoropyridin-4-yl)-1H,5H,6H,7H-pyrrolo[3,2-c]pyridin-4-one]",> 7.00,> 7.00,> 7.00,> 7.00,> 7.00,> 7.00,6.00 to 7.00,> 7.00,–,–,> 7.00,> 7.00,> 7.00,> 7.00,> 7.00
"COc1c(Cl)cccc1Nc1c(-c2ccncc2F)[nH]c2c1C(=O)NC[C@@H]2C[C@@H]1COCCO1 [Compound 482, (S)-7-(((R)-1,4-dioxan-2-yl)methyl)-3-((3-chloro-2-methoxyphenyl)amino)-2-(3-fluoropyridin-4-yl)-1,5,6,7-tetrahydro-4H-pyrrolo[3,2-c]pyridin-4-one]",> 7.00,> 7.00,> 7.00,> 7.00,> 7.00,> 7.00,> 7.00,> 7.00,–,–,> 7.00,> 7.00,> 7.00,> 7.00,> 7.00
COCC[C@H]1CNC(=O)c2c1[nH]c(-c1ccncc1F)c2Nc1cccc(Cl)c1OC [Compound 747],> 7.00,> 7.00,> 7.00,> 7.00,> 7.00,> 7.00,> 7.00,> 7.00,–,–,> 7.00,> 7.00,> 7.00,> 7.00,> 7.00
"COc1c(Cl)cccc1Nc1c(-c2ccnc3ccoc23)[nH]c2c1C(=O)NCC2 [compound 750, 3-[(3-chloro-2-methoxyphenyl)amino]-2-[furo[3,2-b]pyridin-7-yl]-1H,5H,6H,7H-pyrrolo[3,2-c]pyridin-4-one]",> 7.00,> 7.00,> 7.00,> 7.00,> 7.00,> 7.00,6.00 to 7.00,> 7.00,–,–,> 7.00,> 7.00,> 7.00,> 7.00,> 7.00
